In US8173689B2 (Novartis AG, priority 2006, dated 2012):
Where two headings read alike, the source gives them in different places.

Legend:
kinase domain of PDGFRβ = target: T1, kinase domain of PDGFRβ (Homo sapiens, UniProt P09619); assay: Inhibition of PDGFRb kinase signaling in an in vitro biochemical assay (alphascreen); settings: tested at about 1 μM; for inhibition at 1 µM: read-out: PDGFRβ percent inhibition
T1 construct: The kinase domain of PDGFRβ was assayed in 50 mM Hepes; purchased Invitrogen P3082
T1 sequence (P09619 600-962 limits assumed): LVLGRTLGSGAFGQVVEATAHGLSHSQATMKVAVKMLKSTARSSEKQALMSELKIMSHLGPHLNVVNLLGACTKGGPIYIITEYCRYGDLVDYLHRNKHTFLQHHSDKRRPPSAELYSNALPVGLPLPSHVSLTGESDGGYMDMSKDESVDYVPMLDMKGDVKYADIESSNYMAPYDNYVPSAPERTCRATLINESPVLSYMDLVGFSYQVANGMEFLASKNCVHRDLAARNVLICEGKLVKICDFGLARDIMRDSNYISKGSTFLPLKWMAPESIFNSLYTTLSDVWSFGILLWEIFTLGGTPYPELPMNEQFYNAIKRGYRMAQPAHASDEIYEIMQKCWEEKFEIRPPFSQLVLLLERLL
Description: (§1) The IC50 values for the inhibition of RTKs were determined in the alphascreen format measuring the inhibition by compound of phosphate transfer to a substrate by the respective enzyme. Briefly, the respective RTK domain purchased as human recombinant protein (cKIT Upstate #14-559, PDGFRb Invitrogen #P3082) were incubated with serial dilutions of compound in the presence of substrate and ATP concentrations within 3 times the Km of the enzyme.
(§2) Alphascreen PY20 beads were added to the stopped cKIT reactions and PY20 Ab/Protein A Alphascreen beads were added to the PDGFRβ stopped reactions. Both reactions were incubated overnight and read on the Alphascreen reader.

[1] = target: T2, cytoplasmic domain of the human CSF-1R (Homo sapiens, UniProt P07333); assay: In vitro kinase assay for colony stimulating factor-1 receptor (AlphaScreen); assay type: biochemical; settings: tested at about 1 μM; for inhibition at 1 µM: read-out: CSF-1R percent inhibition
T2 construct: Recombinant protein corresponding to the cytoplasmic domain of the human CSF-1R; purchased Invitrogen Corporation, Carlsbad, Calif; PV3249
T2 sequence (P07333 539-972 limits assumed): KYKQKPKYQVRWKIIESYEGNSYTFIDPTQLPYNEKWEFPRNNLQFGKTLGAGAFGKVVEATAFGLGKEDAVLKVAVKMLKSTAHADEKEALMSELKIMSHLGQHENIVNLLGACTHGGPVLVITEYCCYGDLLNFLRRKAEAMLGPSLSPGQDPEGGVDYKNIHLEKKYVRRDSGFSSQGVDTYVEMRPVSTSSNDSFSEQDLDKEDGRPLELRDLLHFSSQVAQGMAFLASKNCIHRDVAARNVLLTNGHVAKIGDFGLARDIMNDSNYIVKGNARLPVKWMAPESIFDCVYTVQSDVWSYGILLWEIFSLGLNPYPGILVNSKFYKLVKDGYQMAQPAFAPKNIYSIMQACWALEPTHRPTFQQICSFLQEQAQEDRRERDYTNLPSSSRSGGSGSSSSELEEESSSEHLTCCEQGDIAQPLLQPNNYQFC
Description: The kinase activity of various protein tyrosine kinases can be measured by providing ATP and a suitable peptide or protein tyrosine-containing substrate, and assaying the transfer of phosphate moiety to the tyrosine residue. Recombinant protein corresponding to the cytoplasmic domain of the human CSF-1R was purchased from Invitrogen Corporation, Carlsbad, Calif. U.S.A. (#PV3249). For each assay, test compounds were serially diluted, starting at 25 μM with 3 fold dilutions, in DMSO in 384 well plates then mixed with an appropriate kinase reaction buffer consisting of 50 mM Hepes, 5 mM MgCl2, 10 mM MnCl2, 0.1% BSA, pH 7.5, 1.0 mM dithiothreitol, 0.01% Tween 80 plus 1 μM ATP. […] Added to the stopped reaction mix was 30 μL of PT66 Alphascreen beads (Perkin Elmer, Boston, Mass., U.S.A.). The reaction was incubated overnight and read on the Envision (Perkin Elmer). Phosphorylated peptide product was measured with the AlphaScreen system (Perkin Elmer) using acceptor beads coated with anti-phosphotyrosine antibody PT66 and donor beads coated with streptavidin that emit a fluorescent signal at the 520-620 nm emission wave length if in close proximity.
CSF-1R kinase was added at final concentration of 4 nM.

kinase domain of cKIT = target: T3, kinase domain of cKIT (Homo sapiens, UniProt P10721); assay: Inhibition of cKIT kinase signaling in an in vitro biochemical assay (alphascreen); settings: tested at about 1 μM; for inhibition at 1 µM: read-out: cKit percent inhibition
T3 construct: The kinase domain of cKIT was assayed in 50 mM Hepes; purchased Upstate 14-559
T3 sequence (P10721 589-937 limits assumed): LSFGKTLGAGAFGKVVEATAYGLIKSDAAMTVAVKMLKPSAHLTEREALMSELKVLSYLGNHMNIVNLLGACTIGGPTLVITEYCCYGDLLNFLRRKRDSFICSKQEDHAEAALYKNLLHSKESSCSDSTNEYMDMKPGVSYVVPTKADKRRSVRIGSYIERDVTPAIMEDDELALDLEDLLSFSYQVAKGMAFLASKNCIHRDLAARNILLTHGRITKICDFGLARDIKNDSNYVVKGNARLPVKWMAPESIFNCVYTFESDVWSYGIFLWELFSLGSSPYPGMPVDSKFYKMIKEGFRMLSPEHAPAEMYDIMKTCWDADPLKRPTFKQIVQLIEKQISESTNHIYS
Description: as §1, §2

inhibition at 1 µM (kinase domain of PDGFRβ)	inhibition at 1 µM [1]	inhibition at 1 µM (kinase domain of cKIT)	inhibition at 1 µM (kinase domain of PDGFRβ; compounds of Table 3)	inhibition at 1 µM ([1]; compounds of Table 3)	inhibition at 1 µM (kinase domain of cKIT; compounds of Table 3)	Compound	also measured
100%	100%	100%				Cn1cc(-c2cc(Oc3ccc4nc(NC5CCCCCC5)sc4c3)ccn2)cn1 [Example 364, N-cycloheptyl-6-(2-(1-methyl-1H-pyrazol-4-yl)pyridin-4-yloxy)benzo[d]thiazol-2-amine]	
			0%	85%	5%	CNC(=O)c1cc(Oc2ccc3nc(N[C@H]4CCCC[C@H]4NC(C)=O)sc3c2)ccn1 [Example 295, 4-(2-((1S,2R)-2-acetamidocyclohexylamino)benzo[d]thiazol-6-yloxy)-N-methylpicolinamide]	
			0%	80%	20%	N#Cc1cc(Oc2ccc3nc(N[C@@H]4CCCC[C@H]4O)sc3c2)ccn1 [Example 226, 4-(2-((1R,2R)-2-hydroxycyclohexylamino)benzo[d]thiazol-6-yloxy)picolinonitrile]	
			0%	76%	0%	CCN1CCC[C@H]1CNC(=O)c1cc(Oc2ccc3nc(N[C@@H]4CCCC[C@H]4O)sc3c2)ccn1 [Compound 20]	
			-3%	82%	17%	CC(=O)N[C@H]1CCN(c2cc(Oc3ccc4nc(N[C@@H]5CCCC[C@H]5O)sc4c3)ccn2)C1 [Cmpd 178, N-((S)-1-(4-(2-((1R,2R)-2-hydroxycyclohexylamino)benzo[d]thiazol-6-yloxy)pyridin-2-yl)pyrrolidin-3-yl)acetamide]	
			0%	75%	12%	O[C@@H]1CCCC[C@H]1Nc1nc2ccc(Oc3ccnc(C4CC4)c3)cc2s1 [Cmpd 169, (1R,2R)-2-(6-(2-cyclopropylpyridin-4-yloxy)benzo[d]thiazol-2-ylamino)cyclohexanol]	
8%	87%	0%				CNC(=O)c1cc(Oc2ccc3nc(N[C@@H]4CCCC[C@H]4OCc4ccccc4)sc3c2)ccn1 [Compound 155, 4-[2-((1R,2R)-2-Benzyloxy-cyclohexylamino)-benzothiazol-6-yloxy]-pyridine-2-carboxylic acid methylamide]	
			0%	95%	3%	CNC(=O)c1cc(Oc2ccc3nc(N[C@H]4CCCC[C@H]4N)sc3c2)ccn1 [Example 292, 4-(2-((1S,2R)-2-aminocyclohexylamino)benzo[d]thiazol-6-yloxy)-N-methylpicolinamide]	
			15%	45%	19%	Cn1nccc1-c1cnccc1Oc1ccc2nc(N[C@@H]3CCCC[C@H]3O)sc2c1 [Example 191]	

The remaining lines, values behind:

Compound	inhibition at 1 µM (kinase domain of PDGFRβ)	inhibition at 1 µM [1]	inhibition at 1 µM (kinase domain of cKIT)	inhibition at 1 µM (kinase domain of PDGFRβ; compounds of Table 3)	inhibition at 1 µM ([1]; compounds of Table 3)	inhibition at 1 µM (kinase domain of cKIT; compounds of Table 3)	also measured
4-(2-Cyclobutylamino- benzooxazol-6-yloxy)- pyridine-2-carboxylic acid methylamide [Compound 22]							PDGFRβ percent inhibition (kinase domain of PDGFRβ; compounds of Table 4): 90%; CSF-1R percent inhibition ([1]; compounds of Table 4): 100%; cKit percent inhibition (kinase domain of cKIT; compounds of Table 4): 89%
CNC(=O)c1cc(Oc2ccc3nc(N[C@H]4CCCNC4)sc3c2)ccn1 [Example 332, (S)-N-methyl-4-(2-(piperidin-3-ylamino)benzo[d]thiazol-6-yloxy)picolinamide]	10%	48%	38%				
CNC(=O)c1cc(Oc2ccc3nc(NCCN4CCCC4)oc3c2)ccn1 [Compound 63, 4-[2-(2-Pyrrolidin-1-yl-ethylamino)-benzooxazol-6-yloxy]-pyridin-2-carboxylic acid methylamide]	3%	45%	6%				
CNC(=O)c1cc(Oc2ccc3nc(NCc4c(F)cccc4Cl)oc3c2)ccn1 [Compound 78, 4-[2-(2-Chloro-6-fluoro-benzylamino)-benzooxazol-6-yloxy]-pyridine-2-carboxylic acid methylamide]	0%	87%	9%				
NCc1cc(Oc2ccc3nc(NCC4CCCCC4)oc3c2)ccn1 [Compound 111, [6-(2-Aminomethyl-pyridin-4-yloxy)-benzooxazol-2-yl]-cyclohexylmethyl-amine]	2%	25%	15%				
CNC(=O)c1cc(Oc2ccc3nc(N[C@@H]4CCN(C(C)=O)C4)sc3c2)ccn1 [Example 303, (R)-4-(2-(1-acetylpyrrolidin-3-ylamino)benzo[d]thiazol-6-yloxy)-N-methylpicolinamide]	12%	74%	24%				
CNC(=O)c1cc(Oc2ccc3nc(N[C@H](CO)c4ccccc4)oc3c2)ccn1 [Compound 56, 4-[2-((S)-2-Hydroxy-1-phenyl-ethylamino)-benzooxazol-6-yloxy]-pyridine-2-carboxylic acid methylamide]	0%	66%	55%				
CNC(=O)c1cc(Oc2ccc3nc(NC(C)C(O)c4cc(OC)ccc4OC)sc3c2)ccn1 (stereo not drawn) [Compound 123]				0%	62%	1%	
Cn1cc(-c2cc(Oc3ccc4nc(N[C@@H]5CCCc6ccccc65)sc4c3)ccn2)cn1 [Example 363, (R)-6-(2-(1-methyl-1H-pyrazol-4-yl)pyridin-4-yloxy)-N-(1,2,3,4-tetrahydronaphthalen-1-yl)benzo[d]thiazol-2-amine]	99%	100%	100%				
CNC(=O)c1cc(Oc2ccc3nc(N[C@@H](C(=O)NC)c4ccccc4)oc3c2)ccn1 [Compound 36, 4-{2-[((R)-Methylcarbamoyl-phenyl-methyl)-amino]-benzo-oxazol-6-yloxy}-pyridine-2-carboxylic acid methylamide]	6%	78%	0%				
CNC(=O)c1cc(Oc2ccc3nc(N[C@H](C(=O)OC)c4ccccc4)oc3c2)ccn1 [Compound 55, (S)-[6-(2-Methylcarbamoyl-pyridin-4-yloxy)-benzooxazol-2-ylamino]-phenyl-acetic acid methyl ester]	11%	97%	21%				
O=C(O)c1cc(Oc2ccc3nc(NCC4CCCCC4)oc3c2)ccn1 [Compound 60, 4-[2-(Cyclohexylmethyl-amino)-benzooxazol-6-yloxy]-pyridine-2-carboxylic acid]	2%	92%	6%				
CNC(=O)c1cc(Oc2ccc3nc(Nc4ccc(Cl)c(C(F)(F)F)c4)sc3c2)ccn1 [Compound 126, 4-[2-(4-Chloro-3-trifluoromethyl-phenylamino)-benzothiazol-6-yloxy]-pyridine-2-carboxylic acid methylamide]	99%	68%	83%				
CNC(=O)c1cc(Oc2ccc3nc(NC[C@@H](C)O)sc3c2)ccn1 [Compound 99]				0%	86%	0%	
CNC(=O)c1cc(Oc2cc3sc(NCC4CCCCC4)nc3cc2F)ccn1 [Example 379, 4-(2-(cyclohexylmethylamino)-5-fluorobenzo[d]thiazol-6-yloxy)-N-methylpicolinamide]	36%	77%	16%				
N#Cc1cc(Oc2ccc3nc(NCC4CCCCC4)oc3c2)ccn1 [Compound 82, 4-[2-(Cyclohexylmethyl-amino)-benzooxazol-6-yloxy]-pyridine-2-carbonitrile]	0%	46%	9%				
